According to patent publication US20240415804A1, “METHOD OF TREATING PANCREATIC CANCER” (University of South Florida, priority 2022, published 2024):

Tests used:
[1] = tested on: heterotopic (H) mouse model of PC (HPC); conditions: earlier report (ref 55); cited from earlier work
miR-155 = miR-155 gene expression by RT-qPCR in MiaPaCa-2 cells; assay type: cell-based, human; conditions: API 40 μM, 24 h, vs DMSO vehicle
Procedure: MiR-155 is known to be overexpressed in different cancers, including PC^21, 23. The inventors first assessed whether apigenin could modulate the expression of miR-155 in PC cells. Murine PC cell lines Panc02 and UN-KC-6141 as well as the human PC cell line MiaPaCa-2 were treated with API (40 μM) or DMSO vehicle for 24 h and the expression of miR-155 was examined using RT-qPCR assay. […] Since API is known to inhibit the growth of cancer cells, including PC cells^39-43, 47-50, the same PC cell lines were treated with API (40 μM) or DMSO (vehicle) for 24 h and examined cell viability using MTT assay. […] Moreover, Panc02 and UN-KC-6141 cells were then treated with API at a dose dependent concentration (10, 20, 30, 40, 50 μM) and detected apoptosis using flow cytometry (Annexin V and PI).
miR-155 is implicated in the development of pancreatic tumors from pancreatic intraepithelial neoplasia (PanIN) lesions, and is overexpressed in PC^23. The inventors examined whether the depletion of miR-155 modulated PC viability. Murine and human PC cell lines were transfected with miR-155 inhibitor (i.e., MMU-MIR-155-5P/HSA-MIR-155-5P) and scrambled miRNA at a concentration of 100 nM for 24 h and cell viability determined using an MTT assay. The expression of miR-155 was examined using an RT-qPCR assay as well. […]

[2] = tested on: CD8+ T cells (CD3+CD8+CD4−); assay: Flow cytometry of intra-tumoral CD8+ T cells and CD40L in KC-HPC mice; assay type: in vivo, mouse; conditions: API-treated vs vehicle-treated KC-HPC mice
Procedure: The inventors then assessed the expression of CD40 (a T cell co-stimulation marker) on M1 TAM (gated as MHC-II^+ and CD206) within the tumor from KC-HPC vs. KC-HPC-API mice. […] The femur and tibia were cut at the pelvic-hip joint and muscle was removed. The femurs and tibias were cut at the ends and flushed with a 30-gauge needle and 10 cc syringe filled with completed RPMI media until bone was white onto a petri dish. Pelleted bone marrow (BM) cells were treated with Red Blood Cell (RBC) lysis buffer (eBioscience, Waltham, MA, USA), according to the manufacturer's instructions, and then filtered through a […] nylon mesh cell strainer in 1×PBS. All pancreatic tumors were manually cut into ˜1-2 mm^3 fragments with a sterile razor blade and then enzymatically digested with Collagenase, type IV (Sigma-Aldrich), DNase, type IV (Sigma-Aldrich) and Hyaluronidase, Type V (Sigma-Aldrich) in Hank's Balanced Salt Solution for 1 h, spun down and washed as described in previous studies^61. Digested pancreatic tumor samples were treated with RBC lysis buffer and then filtered through a […] nylon mesh cell strainer in 1×PBS. Bone marrow and digested pancreatic tumor single cell suspensions were counted with a hemocytometer and then resuspended in 3% FBS/PBS. BM and digested pancreatic tumor cells (1×10^6) were Fc Blocked (anti-mouse CD16/CD32) and then surface stained for 30 min on ice protected from light with fluorescent anti-mouse antibodies including, CD11b-APC, Ly6C-PE/Cy7, Ly6G-PerCP, F4/80-BV650, MHC—II-BV605, CD206-FITC and CD40-PE/Cy5 along with isotype control antibodies (Biolegend, San Diego, CA, USA) to detect MDSC and macrophage subsets. Digested pancreatic tumor cells (1×10^6) were also Fc Blocked and then surface stained with fluorescent anti-mouse antibodies including CD3-FITC, CD8-PercP/Cy5.5, CD4-APC/Cy7, and CD40L-APC along with isotype control antibodies (Biolegend) to detect CD8^+ T cells. Subsequently, all samples were fixed with 2% paraformaldehyde for 15 min on ice protected from light. […]

## O=c1cc(-c2ccc(O)cc2)oc2cc(O)cc(O)c12 [API, 40,5,7-Trihydroxyflavone, 5,7-Dihydroxy-2-(4-hydroxyphenyl)-4-benzopyrone]
[1]
  survival: increased
  tumor growth: reduced
miR-155
  miR-155 gene expression: significantly suppressed
[2]
  CD40L expression on intra-tumoral CD8+ T cells: no significant changes
  intra-tumoral CD8+ T cells (flow cytometric analysis): significant increase
  intra-tumoral CD8+ T cells absolute cell numbers: significant increase
